Laboratory results as given in ChEMBL document CHEMBL4616670, “Phosphine Oxides from a Medicinal Chemist's Perspective: Physicochemical and in Vitro Parameters Relevant for Drug Discovery” (J Med Chem, 2020).
Converted amounts (≈) assume the structure as drawn.

Legend:
physchem [1] = settings: octanol/water, pH 11
Description: Octanol/water partition coefficient, log D of the compound at pH 11

physchem [2] = settings: pH 6.8 buffer
physchem [3] = settings: pH 6.8 buffer; remark: listed apart in the source
physchem [4] = settings: octanol/water, pH 2
Description: Octanol/water partition coefficient, log D of the compound at pH 2

in vitro [5] = settings: human, Caco-2
Description: Permeability across apical to basolateral side in human Caco2 cells measured up to 2 hrs by LC-MS/MS analysis or scintillation counting method

in vitro [6] = settings: human, Caco-2; remark: listed apart in the source
Description: Efflux ratio of permeability in human Caco2 cells measured up to 2 hrs by LC-MS/MS analysis or scintillation counting method

[7] = Basic dissociation constant, pKb of the compound by UV absorption spectra analysis or potentiometric titration technique; assay type: physicochemical
in vitro [8] = settings: human, liver microsomes
Description: Half life in human liver microsomes at 1 uM incubated prior to NADPH addition by LC-MS/MS analysis

in vitro [9] = settings: human, liver microsomes; remark: listed apart in the source
Description: Stability in human liver microsomes at 1 uM incubated prior to NADPH addition by LC-MS/MS analysis relative to hepatic blood flow

[10] = 168 h
Description: Chemical stability of the compound in MeOH/NH3 solution at pH >10 assessed as compound decomposition measured after 7 days by UV-RP-HPLC analysis

physchem [11] = settings: MeOH/HCl solution
Description: Chemical stability of the compound in MeOH/HCl solution at pH <1 assessed as compound decomposition measured after 7 days by UV-RP-HPLC analysis

Structure (SMILES) | logD (physchem [1]) | solubility thermodynamic at 24 h (physchem [2]) | solubility thermodynamic at 24 h (physchem [3]) | logD (physchem [4]) | Papp A→B at 2 h (in vitro [5]) | efflux ratio at 2 h (in vitro [6]) | pKb [7] | half-life at 1 µM (in vitro [8]) | hepatic extraction ratio at 1 µM (in vitro [9]) | Drug degradation [10] | degraded at 168 h (physchem [11])
C[S+]([O-])c1ccc(C(F)(F)F)cc1 (stereo unspecified) | 1.4 | 11100 µg/mL (≈ 53300 µM) | > 46 µg/mL | 1.7 | – | – | – | – | – | – | –
CNS(=N)(=O)c1ccc(C(F)(F)F)cc1 (stereo unspecified) | 1 | 6900 µg/mL (≈ 29000 µM) | > 54 µg/mL | 0.8 | 70 ×10⁻⁶ cm/s | 0.9 | 2.4 | – | – | – | –
CC(C)(C)NC(=O)c1ccc(C(F)(F)F)cc1 | 3.7 | 10 µg/mL (≈ 40.8 µM) | 14 µg/mL (≈ 57.1 µM) | 3.8 | 56 ×10⁻⁶ cm/s | 0.7 | – | – | – | – | –
NC(=O)c1ccc(C(F)(F)F)cc1 | – | 300 µg/mL (≈ 1590 µM) | > 44 µg/mL | 1.5 | 68 ×10⁻⁶ cm/s | 1 | – | – | – | – | –
CN=S(C)(=O)c1ccc(C(F)(F)F)cc1 (stereo unspecified) | 1.7 | 2400 µg/mL (≈ 10100 µM) | > 54 µg/mL | 0.7 | 67 ×10⁻⁶ cm/s | 1 | – | – | – | – | –
CN=S(=O)(c1ccc(C(F)(F)F)cc1)N(C)C (stereo unspecified) | 2.9 | 1200 µg/mL (≈ 4510 µM) | 49 µg/mL (≈ 184 µM) | 2.2 | 70 ×10⁻⁶ cm/s | 0.8 | – | – | – | – | –
CS(=O)(=O)c1ccc(C(F)(F)F)cc1 | – | 300 µg/mL (≈ 1340 µM) | > 47 µg/mL | – | – | – | – | – | – | – | –
CNS(=O)(=O)c1ccc(C(F)(F)F)cc1 | – | 900 µg/mL (≈ 3760 µM) | > 49 µg/mL | – | 36 ×10⁻⁶ cm/s | 0.9 | – | – | – | – | –
CNC(=O)c1ccc(C(F)(F)F)cc1 | 1.6 | 200 µg/mL (≈ 984 µM) | > 51 µg/mL | 1.9 | 56 ×10⁻⁶ cm/s | 0.9 | – | – | – | – | –
O=S1(c2ccc(C(F)(F)F)cc2)=NCCCC1 (stereo unspecified) | 1.8 | 4700 µg/mL (≈ 17900 µM) | > 59 µg/mL | 0.1 | 84 ×10⁻⁶ cm/s | 0.7 | 3.8 | – | – | – | –
CC(C)(C)OC(=O)c1ccc(C(F)(F)F)cc1 | – | 20 µg/mL (≈ 81.2 µM) | 7 µg/mL (≈ 28.4 µM) | – | – | – | – | – | – | – | –
NS(=O)(=O)c1ccc(C(F)(F)F)cc1 | – | 800 µg/mL (≈ 3550 µM) | > 48 µg/mL | – | 83 ×10⁻⁶ cm/s | 0.6 | – | – | – | – | –
CS(=N)(=O)c1ccc(C(F)(F)F)cc1 (stereo unspecified) | 0.9 | 9100 µg/mL (≈ 40800 µM) | > 50 µg/mL | 0.8 | 88 ×10⁻⁶ cm/s | 0.7 | 2.5 | – | – | – | –
CN(C)S(=O)(=O)c1ccc(C(F)(F)F)cc1 | – | 90 µg/mL (≈ 355 µM) | 47 µg/mL (≈ 186 µM) | 3.4 | – | – | – | – | – | – | –
CN=S(=O)(NC)c1ccc(C(F)(F)F)cc1 (stereo unspecified) | 1.8 | 1200 µg/mL (≈ 4760 µM) | > 57 µg/mL | 0.7 | 81 ×10⁻⁶ cm/s | 0.5 | – | – | – | – | –
CNC(=O)c1ccc(C(=O)Nc2ccc(C)c(Nc3nccc(-c4cccnc4)n3)c2)cc1 | 1.7 | – | < 1 µg/mL | 0.5 | 8 ×10⁻⁶ cm/s | 4.9 | – | > 130 min | < 0.23 | – | –
CCOC(=O)c1ccc(C(=O)Nc2ccc(C)c(Nc3nccc(-c4cccnc4)n3)c2)cc1 | 3.5 | – | < 1 µg/mL | 1.9 | – | – | – | < 5 min | > 0.88 | – | –
Cc1ccc(NC(=O)c2ccc(C(N)=O)cc2)cc1Nc1nccc(-c2cccnc2)n1 | 1.5 | – | < 1 µg/mL | 0.4 | 3 ×10⁻⁶ cm/s | 8.1 | – | 117 min | 0.25 | – | –

Structure (SMILES) | logD (physchem [1]) | solubility thermodynamic at 24 h (physchem [2]) | solubility thermodynamic at 24 h (physchem [3]) | logD (physchem [4]) | Papp A→B at 2 h (in vitro [5]) | efflux ratio at 2 h (in vitro [6]) | pKb [7] | half-life at 1 µM (in vitro [8]) | hepatic extraction ratio at 1 µM (in vitro [9]) | Drug degradation [10] | degraded at 168 h (physchem [11])
CCOP(=O)(OCC)c1ccncc1 | 0.2 | 29500 µg/mL (≈ 137000 µM) | > 50 µg/mL | 0 | 66 ×10⁻⁶ cm/s | 0.7 | – | > 130 min | < 0.23 | – | –
CC(C)OP(=O)(OC(C)C)c1ccc(C(F)(F)F)cc1 | 4.2 | 400 µg/mL (≈ 1290 µM) | 29 µg/mL (≈ 93.5 µM) | 4.3 | 84 ×10⁻⁶ cm/s | 0.5 | – | > 130 min | < 0.23 | < 10% | < 10%
COP(=O)(OC)c1ccc(C(F)(F)F)cc1 | 2.2 | 10100 µg/mL (≈ 39700 µM) | 50 µg/mL (≈ 197 µM) | 2.5 | 85 ×10⁻⁶ cm/s | 0.5 | – | > 130 min | < 0.23 | < 10% | < 10%
O=P1(c2ccc(C(F)(F)F)cc2)CCCCC1 | 2 | 7700 µg/mL (≈ 29400 µM) | > 66 µg/mL | 2.4 | 49 ×10⁻⁶ cm/s | 1.1 | – | > 130 min | < 0.23 | < 10% | < 10%
COC(=O)c1ccc(C(F)(F)F)cc1 | – | 20 µg/mL (≈ 98 µM) | < 1 µg/mL | – | – | – | – | – | – | – | –
CCOP(C)(=O)c1ccncc1 (stereo unspecified) | -0.7 | > 30000 µg/mL | > 45 µg/mL | -1.1 | 54 ×10⁻⁶ cm/s | 0.6 | – | > 130 min | < 0.23 | – | –
CCOP(=O)(OCC)c1ccc(C(F)(F)F)cc1 | 3.2 | 1300 µg/mL (≈ 4610 µM) | > 61 µg/mL | 3.4 | 95 ×10⁻⁶ cm/s | 0.6 | – | > 130 min | < 0.23 | < 10% | < 10%
CCP(=O)(CC)c1ccc(C(F)(F)F)cc1 | 2 | 22500 µg/mL (≈ 89900 µM) | > 60 µg/mL | 2.3 | 88 ×10⁻⁶ cm/s | 0.7 | – | > 130 min | < 0.23 | < 10% | < 10%
CCOP(C)(=O)c1ccc(C(=O)Nc2ccc(C)c(Nc3nccc(-c4cccnc4)n3)c2)cc1 (stereo unspecified) | 2.2 | – | 51 µg/mL (≈ 105 µM) | 0.9 | 5 ×10⁻⁶ cm/s | 9.9 | – | 48 min | 0.45 | – | –
O=P1(c2ccc(C(F)(F)F)cc2)CCOCC1 | 1.1 | > 30000 µg/mL | > 65 µg/mL | 1.4 | 65 ×10⁻⁶ cm/s | 0.7 | – | > 130 min | < 0.23 | < 10% | < 10%
O=P1(c2ccc(C(F)(F)F)cc2)CCCC1 | 1.7 | 24500 µg/mL (≈ 98700 µM) | > 59 µg/mL | 2 | 69 ×10⁻⁶ cm/s | 0.7 | – | > 130 min | < 0.23 | < 10% | < 10%
O=P1(c2ccc(C(F)(F)F)cc2)CCNCC1 | 0.5 | 28000 µg/mL (≈ 106000 µM) | > 61 µg/mL | 0 | 13 ×10⁻⁶ cm/s | 1.1 | 6.9 | > 130 min | < 0.23 | < 10% | < 10%
O=P1(c2ccc(C(F)(F)F)cc2)CCC1 | 1.6 | 24500 µg/mL (≈ 105000 µM) | > 53 µg/mL | 1.8 | 78 ×10⁻⁶ cm/s | 0.8 | – | > 130 min | < 0.23 | < 10% | < 10%
CC(C)P(=O)(c1ccc(C(F)(F)F)cc1)C(C)C | 2.8 | 22200 µg/mL (≈ 79800 µM) | > 61 µg/mL | 3.1 | 110 ×10⁻⁶ cm/s | 0.5 | – | > 130 min | < 0.23 | < 10% | < 10%
Cc1ccc(NC(=O)c2ccc(C(=O)N(C)C)cc2)cc1Nc1nccc(-c2cccnc2)n1 | 2 | – | < 1 µg/mL | 0.7 | 19 ×10⁻⁶ cm/s | 2.2 | – | 67 min | 0.37 | – | –
CP(C)(=O)c1ccc(C(F)(F)F)cc1 | 1.1 | > 30000 µg/mL | > 52 µg/mL | 1.5 | 82 ×10⁻⁶ cm/s | 0.5 | – | > 130 min | < 0.23 | < 10% | < 10%
CCOP(C)(=O)c1ccc(C(F)(F)F)cc1 (stereo unspecified) | 2.3 | – | – | 2.5 | 69 ×10⁻⁶ cm/s | 1 | – | > 130 min | < 0.23 | – | –
CCP(=O)(CC)c1ccncc1 | -1 | 11600 µg/mL (≈ 63300 µM) | > 46 µg/mL | < -1.8 | 19 ×10⁻⁶ cm/s | 0.6 | – | > 130 min | < 0.23 | – | –
